One data set can be described thus: in vitro. To be noted: mouse.
Data set [1] relates to murine bone-marrow-derived macrophages (BMDMs). The data set can be described thus: cells. To be noted: Mus musculus, BMDM, 24 h, read-out: IC50 (BMDM viability).
Procedure: (§1) In this study, we used murine bone-marrow-derived macrophages (BMDMs) to evaluate the staining potential of the 6e compound in primary immune cells. […] To assess toxicity, the BMDMs were stained with various concentrations (0.1–100 μM) of compound 6e, and after 24 h, cell viability was measured using the CCK-8 assay (Figure 5).
(§2) To determine the cytotoxicity of the SP compound 6e, the cells were stained with various concentrations of the dye (0, 0.1, 1, 5, 10, and 100 μM). Briefly, 2 × 10^4 cells were plated in a 96-well plate in 100 μL of the medium. After 24 h, the cells were washed once and a solution of compound 6e in PBS was added to the cells. The cells were incubated in a humidified 5% CO2 incubator at 37 °C for 15–20 min. Then, the dye solution was replaced with medium. […] After 24 h, the medium was replaced with 10 μL of CCK-8 reagent in 100 μL of fresh medium. The cells were incubated in a humidified 5% CO2 incubator at 37 °C for 1–4 h. The absorbance at 450 nm was measured using a microplate spectrophotometer (BioTek Instruments, Winooski, VT, USA). Cell viability was calculated as a percentage of non-treated cell absorbance. IC50 values were calculated as the concentration at which 50% of the cells were viable.
The test system of another data set is BHK-21 cells. The class given is cell-based, Syrian hamster. The note with it: BHK-21, 24 h after staining. Here is the method: SP compound 6e was selected for fluorescent cell imaging analysis. First, the compound was used to label the BHK-21 cells that are widely used in molecular biology studies. Commercially available CellTracker™ Deep Red dye (Invitrogen) was used as a control because it has a similar emission range (ex/em: 630/660). The BHK-21 cells were incubated with fluorescent dyes to stain the cells, then seeded on a 24-well plate and cultured for 24 h. SP compound 6e was used at 25 μM concentration, providing a non-toxic effect on BHK-21 cells (Table S2, entry 5, Supplementary Materials). The Deep Red dye was used according to the manufacturer’s instructions.
The day after staining, the cells were collected and washed several times with PBS buffer in order to evaluate the stability of the staining. The fluorescent signal was analysed by flow cytometry (Figure 3). […] However, only (61 ± 3)% of Deep Red stained cells were positive, whereas SP compound 6e ensured 99.9% positive cells. Moreover, the signal intensity (fluorescence shift from unstained cells) of cells stained with compound 6e was remarkably higher than for the Deep Red dye. The calculated stain index for SP compound 6e was (92 ± 19) before cell washing and (77 ± 15) after cell washing. However, in the case of Deep Red, the calculated stain index was (2.27 ± 0.07) before cell washing and (2.21 ± 0.07) after cell washing. High intensity usually facilitates flow cytometry data acquisition by enhancing the signal-to-background ratio and enabling optimal compensation in complex multicolour fluorescence analysis. […]
When cells reached 90% confluency, they were stained with 25 μM compound 6e or 1 μM CellTracker™ Deep Red dye (Cat. No. C34565; Invitrogen) according to the manufacturer’s instructions. […] Stained cells were kept at 4 °C and analysed using a FACSAria BD Hardware flow cytometer with FACSDiva 6.1.3 software (BD Biosciences, San Jose, CA, USA). […] The data were analysed using FlowJo 10.3 software (FlowJo LLC, Ashland, OR, USA) and presented as the mean of three independent experiments. […]

The values below come from article PMC10535741, “Styrylpyridinium Derivatives for Fluorescent Cell Imaging” (Pharmaceuticals, 2023).

Procedure for in vitro: as §1, §2

As to `CCCCCCCCCCCCCCCC[n+]1ccc(C=CC=Cc2cc3c4c(c2)CCCN4CCC3)cc1.[Br-]` [Compound 6e, 1-hexadecyl-4-(4-(2,3,6,7-tetrahydro-1H,5H-pyrido[3,2,1-ij]quinolin-9-yl)buta-1,3-dien-1-yl)pyridin-1-ium bromide], in “in vitro”, the viability (as a rule, the share of living cells, or the viability signal relative to a control) at 24 h, 5 µM came to 79.1 ± 1.2%. The IC50 (usually the concentration at which inhibition is half-maximal) in data set [1] came to 9.2 ± 1.5 µM. In addition, the “stain index after cell washing” value in the data set on BHK-21 cells (washed 3 times with PBS) turned out to be 77 ± 15. Besides, in the data set on BHK-21 cells (25 μM 6e or 1 μM Deep Red), the “positive (stained) cells” value amounted to 99.9% and the “stain index before cell washing” value stood at 92 ± 19.
